The results in this text go back to ChEMBL document CHEMBL6092217 (Eur J Med Chem, 2024).

The test system of assay [1] is HT-29. The assay is described as follows: Induction of apoptosis in human HT-29 cells assessed as late apoptotic cells at 50 nM incubated for 24 hrs by FITC/PI staining based flow cytometry analysis (reference value: 0.20%). In kind it is functional. A general note: A flow cytometer gives signals particle by particle.
The subject of another assay is MDA-MB-231. Briefly: cells. Conditions: Homo sapiens, MDA-MB-231, 72 h.
The next assay relates to HepG2. The assay is described as follows: Antiproliferative activity against human HepG2 cells assessed as cell viability incubated for 72 hrs by MTT assay. In kind it is functional, cell-based. Conditions: HepG2, 72 h. In general terms: Tetrazolium dyes change colour on reduction, which living cells bring about.
The test system of assay [2] is HT-29. The assay is described as follows: Induction of apoptosis in human HT-29 cells assessed as viable cells at 50 nM incubated for 24 hrs by FITC/PI staining based flow cytometry analysis (reference value: 91.6%). In kind it is functional. Conditions: read-out: Activity.
The subject of assay [3] is HT-29. The assay is described as follows: Induction of cell cycle arrest in human HT-29 cells assessed as accumulation of cells at G1 phase at 100 nM incubated for 24 hrs by flow cytometry analysis (reference value: 67.6%). It is filed as functional.

Description for MDA-MB-231: Antiproliferative activity against human MDA-MB-231 cells assessed as cell viability incubated for 72 hrs by MTT assay

A word on the IC50: it is the concentration that inhibits the measured activity by half. Consider `COc1ccc(N(C)c2nc(/C=C/c3cccc(OC)c3)nc3ccccc23)cc1`, for which the Activity is reported as 13.6% in the assay with HT-29 [1] and 35.6% with HT-29 [3]. Also, the half-maximal inhibitory concentration (IC50) amounted to 440 nM with MDA-MB-231 and 190 nM in the assay on HepG2. The viability at 0.05 µM in the assay with HT-29 [2] is 72%.
